One block for each compound: values may come before it.
Experiments:
[1] = target: T1, 3-phosphoinositide-dependent protein kinase 1 (Homo sapiens, UniProt O15530); experiment: Inhibition of PDK1
T1 sequence (O15530 whole entry): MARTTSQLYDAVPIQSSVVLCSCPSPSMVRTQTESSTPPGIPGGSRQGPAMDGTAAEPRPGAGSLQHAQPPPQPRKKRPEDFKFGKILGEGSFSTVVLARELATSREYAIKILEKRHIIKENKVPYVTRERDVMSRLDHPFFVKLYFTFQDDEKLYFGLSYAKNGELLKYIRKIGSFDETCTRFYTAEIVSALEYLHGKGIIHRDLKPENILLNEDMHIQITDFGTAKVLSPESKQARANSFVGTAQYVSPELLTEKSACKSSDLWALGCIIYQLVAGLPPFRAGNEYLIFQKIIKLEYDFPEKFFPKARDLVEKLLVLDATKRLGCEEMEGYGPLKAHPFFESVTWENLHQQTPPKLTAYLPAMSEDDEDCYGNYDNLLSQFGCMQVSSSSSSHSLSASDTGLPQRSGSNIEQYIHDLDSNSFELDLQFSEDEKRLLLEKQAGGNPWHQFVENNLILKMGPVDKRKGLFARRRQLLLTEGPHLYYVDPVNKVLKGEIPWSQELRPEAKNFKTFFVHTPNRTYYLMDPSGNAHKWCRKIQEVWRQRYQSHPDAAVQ

DU-145 = experiment: Growth inhibition of DU145 cells; type: functional, cell-based; conditions: Homo sapiens
[2] = target: Inhibitor of NF-kappa-B kinase (IKK) (Homo sapiens, UniProt O14920+O15111+Q9Y6K9); experiment: Inhibition of IKK; type: protein-complex assay
[3] = Inhibition of PKA; set-up: species or system Homo sapiens
[4] = Growth inhibition of PC-3mm2 cells; type: functional, cell-based; conditions: Homo sapiens, PC3MM2
[5] = target: Proto-oncogene tyrosine-protein kinase Src (Homo sapiens, UniProt P12931); experiment: Inhibition of Src
MDA-MB-468 = experiment: Growth inhibition of MDA-MB-468 cells; type: functional, cell-based; conditions: Homo sapiens
SW-620 = experiment: Growth inhibition of SW620 cells; type: functional, cell-based; conditions: Homo sapiens
[6] = target: Ribosomal protein S6 kinase beta-1 (Homo sapiens, UniProt P23443); experiment: Inhibition of S6K
[7] = Inhibition of CAMII; set-up: species or system Homo sapiens
[8] = target: RAC-alpha serine/threonine-protein kinase (Homo sapiens, UniProt P31749); experiment: Inhibition of AKT
[9] = Inhibition of P38; set-up: species or system Homo sapiens
[10] = Inhibition of MEK; set-up: species or system Homo sapiens
[11] = Growth inhibition of M49-5 cells; type: functional, cell-based; conditions: Homo sapiens
[12] = target: MAP kinase-activated protein kinase 2 (Homo sapiens, UniProt P49137); experiment: Inhibition of MK2
HCT-116 = experiment: Growth inhibition of HCT116 cells; type: functional, cell-based; conditions: Homo sapiens
[13] = target: Cyclin-dependent kinase 4 (Homo sapiens, UniProt P11802); experiment: Inhibition of CDK4
[14] = Inhibition of TPL2; set-up: species or system Homo sapiens
K562 = experiment: Growth inhibition of K562 cells; type: functional, cell-based; conditions: Homo sapiens
[15] = target: T2, Serine/threonine-protein kinase Sgk1 (Homo sapiens, UniProt O00141); experiment: Inhibition of SGK1
T2 sequence (O00141 whole entry): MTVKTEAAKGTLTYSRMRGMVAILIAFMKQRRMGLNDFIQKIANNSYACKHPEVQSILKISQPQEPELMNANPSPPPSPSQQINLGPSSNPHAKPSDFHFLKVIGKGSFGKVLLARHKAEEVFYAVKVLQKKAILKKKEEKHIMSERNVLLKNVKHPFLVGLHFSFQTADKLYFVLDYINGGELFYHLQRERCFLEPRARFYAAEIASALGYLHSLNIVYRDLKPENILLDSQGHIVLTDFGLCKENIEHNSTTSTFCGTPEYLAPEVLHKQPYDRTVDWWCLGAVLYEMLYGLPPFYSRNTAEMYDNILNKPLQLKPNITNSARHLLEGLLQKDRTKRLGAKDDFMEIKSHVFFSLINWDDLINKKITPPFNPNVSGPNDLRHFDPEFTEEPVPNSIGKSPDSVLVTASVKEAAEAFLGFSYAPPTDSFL

Chain of Inhibitor of NF-kappa-B kinase (IKK) (O14920 whole entry): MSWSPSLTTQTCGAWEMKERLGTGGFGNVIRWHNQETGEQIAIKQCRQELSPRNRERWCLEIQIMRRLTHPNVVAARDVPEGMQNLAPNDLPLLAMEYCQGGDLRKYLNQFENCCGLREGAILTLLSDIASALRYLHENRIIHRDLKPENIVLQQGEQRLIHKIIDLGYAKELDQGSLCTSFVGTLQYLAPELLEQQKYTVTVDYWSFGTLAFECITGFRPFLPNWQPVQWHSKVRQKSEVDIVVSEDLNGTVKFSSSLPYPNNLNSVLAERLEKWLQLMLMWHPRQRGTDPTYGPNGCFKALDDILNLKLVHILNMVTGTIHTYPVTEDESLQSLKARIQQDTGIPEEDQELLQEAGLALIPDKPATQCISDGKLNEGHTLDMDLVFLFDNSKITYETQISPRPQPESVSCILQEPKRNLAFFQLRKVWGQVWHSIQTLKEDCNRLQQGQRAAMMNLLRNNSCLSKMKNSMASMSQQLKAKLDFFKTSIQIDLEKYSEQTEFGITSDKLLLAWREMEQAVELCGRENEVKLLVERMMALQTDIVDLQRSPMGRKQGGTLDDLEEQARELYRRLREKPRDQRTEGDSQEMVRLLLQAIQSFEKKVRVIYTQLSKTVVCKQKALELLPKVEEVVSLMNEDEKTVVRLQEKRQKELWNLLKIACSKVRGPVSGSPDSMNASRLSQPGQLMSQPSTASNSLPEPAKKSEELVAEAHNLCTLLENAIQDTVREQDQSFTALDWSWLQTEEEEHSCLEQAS
Chain of Inhibitor of NF-kappa-B kinase (IKK) (O15111 whole entry): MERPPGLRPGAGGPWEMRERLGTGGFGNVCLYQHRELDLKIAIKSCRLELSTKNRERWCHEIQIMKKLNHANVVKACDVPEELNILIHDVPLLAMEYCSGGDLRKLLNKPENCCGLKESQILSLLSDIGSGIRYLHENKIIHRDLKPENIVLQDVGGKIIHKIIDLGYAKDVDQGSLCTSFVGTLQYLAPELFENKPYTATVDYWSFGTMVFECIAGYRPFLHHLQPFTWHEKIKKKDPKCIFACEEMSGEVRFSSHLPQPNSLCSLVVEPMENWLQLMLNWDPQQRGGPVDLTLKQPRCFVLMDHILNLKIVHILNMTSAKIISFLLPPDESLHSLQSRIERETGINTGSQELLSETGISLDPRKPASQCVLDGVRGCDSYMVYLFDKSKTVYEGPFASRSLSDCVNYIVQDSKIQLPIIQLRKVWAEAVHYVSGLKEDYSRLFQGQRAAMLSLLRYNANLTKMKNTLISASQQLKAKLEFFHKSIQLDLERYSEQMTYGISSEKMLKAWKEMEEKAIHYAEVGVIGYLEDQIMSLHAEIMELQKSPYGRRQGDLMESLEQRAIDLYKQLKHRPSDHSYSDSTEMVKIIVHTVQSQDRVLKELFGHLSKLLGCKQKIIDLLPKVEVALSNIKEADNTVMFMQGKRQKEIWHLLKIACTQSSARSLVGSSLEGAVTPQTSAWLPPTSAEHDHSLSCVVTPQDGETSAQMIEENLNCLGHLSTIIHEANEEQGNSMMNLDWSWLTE
Chain of Inhibitor of NF-kappa-B kinase (IKK) (Q9Y6K9 whole entry): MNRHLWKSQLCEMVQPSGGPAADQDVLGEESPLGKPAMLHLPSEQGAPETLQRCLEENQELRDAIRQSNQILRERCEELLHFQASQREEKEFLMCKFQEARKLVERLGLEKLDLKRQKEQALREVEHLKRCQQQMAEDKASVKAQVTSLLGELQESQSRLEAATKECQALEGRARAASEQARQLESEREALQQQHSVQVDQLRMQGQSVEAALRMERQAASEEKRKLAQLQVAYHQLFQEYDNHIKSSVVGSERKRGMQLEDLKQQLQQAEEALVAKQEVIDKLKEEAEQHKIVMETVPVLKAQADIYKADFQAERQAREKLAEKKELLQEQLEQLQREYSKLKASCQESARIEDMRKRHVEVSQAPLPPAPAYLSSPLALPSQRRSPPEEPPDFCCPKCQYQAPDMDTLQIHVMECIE
Chain of MAP kinase-activated protein kinase 2 (P49137 whole entry): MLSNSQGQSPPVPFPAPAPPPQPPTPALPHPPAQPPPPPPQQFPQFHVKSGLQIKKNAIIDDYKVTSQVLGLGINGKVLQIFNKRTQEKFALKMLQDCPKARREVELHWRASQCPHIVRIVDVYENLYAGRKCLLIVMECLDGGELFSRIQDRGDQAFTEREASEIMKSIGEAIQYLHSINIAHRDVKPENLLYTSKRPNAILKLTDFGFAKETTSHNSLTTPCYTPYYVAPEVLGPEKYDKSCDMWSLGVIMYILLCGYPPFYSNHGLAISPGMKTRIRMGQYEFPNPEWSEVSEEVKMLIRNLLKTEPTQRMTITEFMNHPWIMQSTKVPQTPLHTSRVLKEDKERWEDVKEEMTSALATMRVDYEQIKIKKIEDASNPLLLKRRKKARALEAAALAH
Chain of Proto-oncogene tyrosine-protein kinase Src (P12931 2-536 limits assumed): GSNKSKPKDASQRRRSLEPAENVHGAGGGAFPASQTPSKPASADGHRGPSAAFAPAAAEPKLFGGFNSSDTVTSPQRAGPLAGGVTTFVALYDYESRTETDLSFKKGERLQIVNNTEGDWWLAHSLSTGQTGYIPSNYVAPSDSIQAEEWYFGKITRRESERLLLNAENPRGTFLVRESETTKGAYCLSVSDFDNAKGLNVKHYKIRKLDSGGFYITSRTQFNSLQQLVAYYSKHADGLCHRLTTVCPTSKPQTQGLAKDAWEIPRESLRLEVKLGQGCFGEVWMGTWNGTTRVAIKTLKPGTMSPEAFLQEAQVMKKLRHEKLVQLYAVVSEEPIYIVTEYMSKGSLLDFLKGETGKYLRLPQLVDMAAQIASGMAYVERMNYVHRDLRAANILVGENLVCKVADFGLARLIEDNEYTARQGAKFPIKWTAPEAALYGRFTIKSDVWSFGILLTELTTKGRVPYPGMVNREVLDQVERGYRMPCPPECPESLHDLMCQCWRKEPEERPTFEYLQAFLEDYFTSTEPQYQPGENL
Chain of Cyclin-dependent kinase 4 (P11802 whole entry): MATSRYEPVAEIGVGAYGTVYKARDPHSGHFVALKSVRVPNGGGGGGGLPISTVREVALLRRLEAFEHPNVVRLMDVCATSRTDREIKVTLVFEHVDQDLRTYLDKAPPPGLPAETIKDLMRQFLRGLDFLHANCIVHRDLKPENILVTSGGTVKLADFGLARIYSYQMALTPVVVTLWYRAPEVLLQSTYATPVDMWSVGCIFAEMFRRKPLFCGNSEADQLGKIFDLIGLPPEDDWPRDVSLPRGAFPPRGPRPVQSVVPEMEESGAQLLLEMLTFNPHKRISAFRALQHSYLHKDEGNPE
Chain of Ribosomal protein S6 kinase beta-1 (P23443 whole entry): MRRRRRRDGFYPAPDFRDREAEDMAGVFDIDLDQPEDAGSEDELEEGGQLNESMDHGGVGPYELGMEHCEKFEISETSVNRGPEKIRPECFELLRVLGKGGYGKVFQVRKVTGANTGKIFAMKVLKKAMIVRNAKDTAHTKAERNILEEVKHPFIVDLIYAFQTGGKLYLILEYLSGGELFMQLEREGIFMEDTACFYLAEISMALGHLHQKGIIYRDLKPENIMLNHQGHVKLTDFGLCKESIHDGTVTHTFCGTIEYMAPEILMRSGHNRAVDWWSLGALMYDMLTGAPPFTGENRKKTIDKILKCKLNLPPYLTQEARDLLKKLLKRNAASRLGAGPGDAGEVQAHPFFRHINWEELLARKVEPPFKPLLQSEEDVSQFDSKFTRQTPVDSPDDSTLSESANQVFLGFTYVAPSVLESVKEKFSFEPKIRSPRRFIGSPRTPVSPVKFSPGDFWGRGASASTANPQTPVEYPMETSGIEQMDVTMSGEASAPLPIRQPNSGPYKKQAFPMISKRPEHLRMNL
Chain of RAC-alpha serine/threonine-protein kinase (P31749 whole entry): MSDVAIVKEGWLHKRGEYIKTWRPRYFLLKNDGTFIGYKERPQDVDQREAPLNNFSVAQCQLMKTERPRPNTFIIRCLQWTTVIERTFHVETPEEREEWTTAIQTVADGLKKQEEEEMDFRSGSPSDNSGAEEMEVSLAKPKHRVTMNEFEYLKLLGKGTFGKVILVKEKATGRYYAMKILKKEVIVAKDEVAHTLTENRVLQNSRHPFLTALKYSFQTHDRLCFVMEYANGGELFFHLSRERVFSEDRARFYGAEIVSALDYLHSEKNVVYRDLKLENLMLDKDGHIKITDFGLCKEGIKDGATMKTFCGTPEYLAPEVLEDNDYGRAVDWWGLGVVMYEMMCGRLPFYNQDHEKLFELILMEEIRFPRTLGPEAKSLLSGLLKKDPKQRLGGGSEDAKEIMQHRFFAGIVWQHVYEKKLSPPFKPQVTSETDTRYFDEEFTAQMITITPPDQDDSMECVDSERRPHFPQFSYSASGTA

SMILES: COc1cc2ncc3cnc4ccccc4c3c2cc1OC
IC50 [1]: 7.45 µM

SMILES: COc1cc2ncc3c(N)nc4c(C)c(N)ccc4c3c2cc1OC
IC50 (DU-145): 2.53 µM
IC50 [2]: > 10 µM
IC50 [3]: > 10 µM
IC50 [4]: 4.3 µM
IC50 [5]: > 10 µM
IC50 (MDA-MB-468): 1.55 µM
IC50 (SW-620): 3.9 µM
IC50 [6]: > 10 µM
IC50 [7]: > 10 µM
IC50 [8]: > 10 µM
IC50 [9]: > 10 µM
IC50 [10]: > 10 µM
IC50 [11]: 0.35 µM
IC50 [12]: > 10 µM
IC50 (HCT-116): 3.6 µM
IC50 [13]: > 10 µM
IC50 [14]: > 10 µM
IC50 (K562): 0.48 µM
IC50 [15]: > 10 µM

SMILES: COc1cc2c(cc1F)ncc1c(N)nc3c(C)c(N)ccc3c12
IC50 [1]: 0.58 µM

SMILES: COc1cc2c(cc1NCCN(C)C)ncc1c(N)nc3c(C)c(N)ccc3c12
IC50 [1]: 2.49 µM

SMILES: COc1cc2ncc3c(N)nc4c(C)c(Cl)ccc4c3c2cc1OC
IC50 [1]: 2.12 µM

The remaining compounds from weak to strong by IC50 [1], led by results:

IC50 [1]: 0.2 µM
SMILES: COc1cc2c(cc1OCCCN(C)C)ncc1c(N)nc3c(C)c(N)ccc3c12

IC50 [1]: 0.06 µM
SMILES: COc1cc2c(cc1OCCN1CCOCC1)ncc1c(N)nc3c(C)c(N)ccc3c12

IC50 [1]: 0.04 µM
SMILES: COc1cc2ncc3c(N)nc4c(C)c(O)ccc4c3c2cc1OC
